Molecular target: human Nav 1.8 (Homo sapiens, UniProt Q9Y5Y9)
Experiment: E-VIPR assay detecting and measuring Nav inhibition (HEK cells expressing truncated human Nav 1.8)
Assay type: cell-based
Conditions: in the Presence of Human Serum in the E-VIPR Assay; read-out: IC50
Text: Sodium ion channels are voltage-dependent proteins that can be activated by inducing membrane voltage changes by applying electric fields. The electrical stimulation instrument and methods of use, referred to as E-VIPR, are described in International Publication No. WO 2002/008748 A3 and C.-J. Huang et al. Characterization of voltage-gated sodium channel blockers by electrical stimulation and fluorescence detection of membrane potential, 24 Nature Biotech. 439-46 (2006), both of which are incorporated by reference in their entirety. The instrument comprises a microtiter plate handler, an optical system for exciting the coumarin dye while simultaneously recording the coumarin and oxonol emissions, a waveform generator, a current- or voltage-controlled amplifier, and parallel electrode pairs that are inserted into assay plate wells. Under integrated computer control, this instrument passes user-programmed electrical stimulus protocols to cells within the wells of the microtiter plate.
16-20 hours prior to running the assay on E-VIPR, HEK cells expressing a truncated form of human Nav 1.8 with full channel activity were seeded into microtiter 384-well plates, pre-coated with matrigel, at a density of 25,000 cells per well. 2.5-5% KIR2.1 Bacmam virus was added to the final cell suspension before seeding into cell plates. HEK cells were grown in Dulbecco's Modified Eagle's Medium (DMEM) supplemented with 10% FBS (Fetal Bovine Serum, qualified; Sigma #F4135), 1% NEAA (Non-Essential Amino Acids, Gibco #11140), 1% HEPES (Gibco #15630), 1% Pen-Strep (Penicillin-Streptomycin; Gibco #15140) and 5 μg/ml Blasticidin (Gibco #R210-01). Cells were expanded in vented cap cell culture flasks, with 90-95% humidity and 5% CO2.
Human Serum (HS, Millipore #S1P1-01KL, or Sigma SLBR5469V and SLBR5470V as a 50%/50% mixture, for 25% assay final concentration)
Bath1 Buffer: • Sodium Chloride 160 mM (9.35 g/L), Potassium Chloride, 4.5 mM (0.335 g/L), Glucose 10 mM (1.8 g/L), Magnesium Chloride (Anhydrous) 1 mM (0.095 g/L), Calcium Chloride 2 mM (0.222 g/L), HEPES 10 mM (2.38 g/L) in water.
Na/TMA Cl Bath1 Buffer: • Sodium Chloride 96 mM (5.61 g/L), Potassium Chloride 4.5 mM (0.335 g/L), Tetramethylammonium (TMA)-Cl 64 mM (7.01 g/L), Glucose 10 mM (1.8 g/L), Magnesium Chloride (Anhydrous) 1 mM (0.095 g/L), Calcium Chloride 2 mM (0.222 g/L) HEPES 10 mM (2.38 g/L) in water.
Hexyl Dye Solution (2× concentration): • Bath1 Buffer containing 0.5% β-cyclodextrin (made fresh prior to each use, Sigma #C4767), 8 μM CC2-DMPE and 2 μM DiSBAC6(3). The solution was made by adding 10% Pluronic F127 stock equal to combined volumes of CC2-DMPE and DiSBAC6(3). The order of preparation was first mix Pluronic and CC2-DMPE, then add DiSBAC6(3), then while vortexing add Bath1/β-Cyclodextrin.
Compound Loading Buffer (2×concentration): Na/TMA Cl Bath1 Buffer containing HS (omitted in experiments run in the absence of human serum (HS)) 50%, VABSC-1 1 mM, BSA 0.2 mg/ml (in Bath-1), KCl 9 mM, DMSO 0.75%.
Assay Protocol (7 Key Steps): • 1) To reach the final concentration in each well, 400 nL of each compound was pre-spotted (in neat DMSO) into polypropylene compound plates at 250×desired final concentration from an intermediate stock concentration of 0.075 mM, in an 11 point dose response, 3-fold dilution, resulting in a top dose of 300 nM final concentration in the cell plate. Vehicle control (neat DMSO), and positive control (an established Nav1.8 inhibitor, 25 μM final in assay in DMSO) were added manually to the outermost columns of each plate respectively. The compound plate was backfilled with 45 μL per well of Compound Loading Buffer resulting in a 250 fold dilution of compound following a 1:1 transfer of compound into the cell plate (see Step 6). Final DMSO concentration for all wells in the assay was 0.625% (0.75% DMSO was supplemented to the Compound Loading Buffer for a final DMSO concentration of 0.625%). […]

Sequence of human Nav 1.8 (Q9Y5Y9 whole entry, looked up, the tested form may be a part): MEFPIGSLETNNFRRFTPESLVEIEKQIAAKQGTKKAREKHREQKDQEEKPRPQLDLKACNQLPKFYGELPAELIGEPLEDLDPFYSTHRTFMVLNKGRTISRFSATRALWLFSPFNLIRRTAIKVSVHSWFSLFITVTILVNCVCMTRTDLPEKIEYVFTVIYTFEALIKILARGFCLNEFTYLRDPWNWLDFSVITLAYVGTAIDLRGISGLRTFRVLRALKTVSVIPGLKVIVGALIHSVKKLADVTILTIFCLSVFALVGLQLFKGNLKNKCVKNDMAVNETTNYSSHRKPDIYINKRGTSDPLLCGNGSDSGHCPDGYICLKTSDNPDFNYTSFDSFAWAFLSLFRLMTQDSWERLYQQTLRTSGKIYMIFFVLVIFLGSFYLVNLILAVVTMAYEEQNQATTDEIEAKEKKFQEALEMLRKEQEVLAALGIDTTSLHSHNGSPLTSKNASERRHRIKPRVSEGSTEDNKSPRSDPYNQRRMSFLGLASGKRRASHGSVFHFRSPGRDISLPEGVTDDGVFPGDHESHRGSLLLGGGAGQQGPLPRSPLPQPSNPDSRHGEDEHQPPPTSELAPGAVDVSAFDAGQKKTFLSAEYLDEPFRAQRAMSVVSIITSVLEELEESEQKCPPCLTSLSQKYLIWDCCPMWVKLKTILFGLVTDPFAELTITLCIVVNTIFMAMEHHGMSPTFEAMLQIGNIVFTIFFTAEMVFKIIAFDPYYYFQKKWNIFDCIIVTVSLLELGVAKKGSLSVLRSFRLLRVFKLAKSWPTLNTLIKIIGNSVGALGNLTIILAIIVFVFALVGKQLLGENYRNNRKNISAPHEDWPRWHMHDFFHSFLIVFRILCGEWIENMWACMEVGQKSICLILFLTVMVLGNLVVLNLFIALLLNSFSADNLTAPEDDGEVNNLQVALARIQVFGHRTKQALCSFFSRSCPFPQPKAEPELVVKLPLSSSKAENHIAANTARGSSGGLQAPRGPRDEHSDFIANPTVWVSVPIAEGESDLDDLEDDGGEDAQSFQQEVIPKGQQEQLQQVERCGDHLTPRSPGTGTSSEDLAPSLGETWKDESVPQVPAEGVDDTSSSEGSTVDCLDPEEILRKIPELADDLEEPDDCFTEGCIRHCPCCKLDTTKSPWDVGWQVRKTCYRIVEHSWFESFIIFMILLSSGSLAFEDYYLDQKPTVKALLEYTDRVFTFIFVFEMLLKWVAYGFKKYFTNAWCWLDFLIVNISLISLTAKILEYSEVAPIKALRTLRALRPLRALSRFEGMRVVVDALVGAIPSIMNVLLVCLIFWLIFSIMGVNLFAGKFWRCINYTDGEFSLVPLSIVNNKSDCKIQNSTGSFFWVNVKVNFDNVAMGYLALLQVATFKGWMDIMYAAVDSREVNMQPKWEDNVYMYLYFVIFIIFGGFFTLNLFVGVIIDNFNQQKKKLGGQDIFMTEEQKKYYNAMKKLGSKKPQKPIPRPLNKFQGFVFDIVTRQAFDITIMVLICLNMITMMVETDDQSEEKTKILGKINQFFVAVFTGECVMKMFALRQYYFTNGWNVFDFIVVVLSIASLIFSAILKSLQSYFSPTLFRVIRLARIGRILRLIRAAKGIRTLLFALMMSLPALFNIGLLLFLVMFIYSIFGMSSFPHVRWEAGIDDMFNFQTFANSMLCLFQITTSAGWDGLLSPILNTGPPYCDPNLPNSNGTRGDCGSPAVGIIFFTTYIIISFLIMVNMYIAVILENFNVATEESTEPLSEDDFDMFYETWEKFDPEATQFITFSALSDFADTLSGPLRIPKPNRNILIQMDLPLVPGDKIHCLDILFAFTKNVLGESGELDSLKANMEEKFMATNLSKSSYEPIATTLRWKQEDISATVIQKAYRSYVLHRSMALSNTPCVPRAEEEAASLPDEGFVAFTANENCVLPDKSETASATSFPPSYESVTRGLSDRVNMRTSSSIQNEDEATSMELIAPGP

Row | Compound | IC50 [µM]
1 | COc1cc(F)ccc1[C@@H]1[C@@H](C)[C@@](C)(C(F)(F)F)O[C@H]1C(=O)Nc1ccnc(C(N)=O)c1 (single isomer, unassigned) [Compound 36] | > 1
2 | COc1cc(F)ccc1[C@@H]1[C@@H](C(=O)Nc2ccnc(C(N)=O)c2)O[C@@](C)(C(F)(F)F)[C@H]1C (single isomer, unassigned) [Compound 37] | 0.1 to 1
3 | COc1cc(F)ccc1[C@@H]1[C@@H](C(=O)Nc2ccnc(C(N)=O)c2)O[C@](C)(C(F)(F)F)[C@H]1C (single isomer, unassigned) [Compound 38] | > 1
4 | COc1cc(F)ccc1[C@@H]1[C@@H](C)[C@](C)(C(F)(F)F)O[C@H]1C(=O)Nc1ccnc(C(N)=O)c1 (single isomer, unassigned) [Compound 39] | 0.1 to 1
5 | COc1cc(F)ccc1[C@H]1[C@H](C(=O)Nc2ccnc(C(N)=O)c2)O[C@](C)(C(F)(F)F)[C@H]1C (single isomer, unassigned) [Compound 40] | > 1
6 | COc1cc(F)ccc1[C@@H]1[C@@H](C(=O)Nc2ccnc(C(N)=O)c2)O[C@@](C)(C(F)(F)F)[C@@H]1C (single isomer, unassigned) [Compound 41] | 0.01 to 0.1
7 | COc1c([C@H]2[C@H](C(=O)Nc3ccnc(C(N)=O)c3)O[C@@](C)(C(F)(F)F)[C@H]2C)ccc(F)c1C(F)F (single isomer, unassigned) [Compound 44] | < 0.01
8 | COc1c([C@@H]2[C@@H](C(=O)Nc3ccnc(C(N)=O)c3)O[C@](C)(C(F)(F)F)[C@@H]2C)ccc(F)c1C(F)F (single isomer, unassigned) [Compound 45] | 0.01 to 0.1
9 | COc1c([C@H]2C[C@@](C)(C(F)(F)F)O[C@@H]2C(=O)Nc2ccc(F)c(C(N)=O)c2)ccc(F)c1F (single isomer, unassigned) [Compound 46] | > 1
10 | COc1c([C@@H]2C[C@](C)(C(F)(F)F)O[C@H]2C(=O)Nc2ccc(F)c(C(N)=O)c2)ccc(F)c1F (single isomer, unassigned) [Compound 47] | 0.01 to 0.1
11 | CNC(=O)c1cc(NC(=O)[C@H]2O[C@](C)(C(F)(F)F)C[C@@H]2c2ccc(F)c(Cl)c2OC)ccn1 (single isomer, unassigned) [Compound 58] | > 1
12 | CNC(=O)c1cc(NC(=O)[C@@H]2O[C@](C)(C(F)(F)F)C[C@H]2c2ccc(F)c(Cl)c2OC)ccn1 (single isomer, unassigned) [Compound 59] | > 1
13 | CNC(=O)c1cc(NC(=O)[C@@H]2O[C@@](C)(C(F)(F)F)C[C@H]2c2ccc(F)c(Cl)c2OC)ccn1 (single isomer, unassigned) [Compound 60] | 0.01 to 0.1
14 | CNC(=O)c1cc(NC(=O)[C@H]2O[C@@](C)(C(F)(F)F)C[C@@H]2c2ccc(F)c(Cl)c2OC)ccn1 (single isomer, unassigned) [Compound 61] | 0.1 to 1
15 | COc1c([C@H]2C[C@@H](C(C)(C)C)O[C@@H]2C(=O)Nc2ccnc(C(N)=O)c2)ccc(F)c1F (single isomer, unassigned) [Compound 65] | > 1
16 | COc1c([C@@H]2C[C@H](C(C)(C)C)O[C@H]2C(=O)Nc2ccnc(C(N)=O)c2)ccc(F)c1F (single isomer, unassigned) [Compound 66] | 0.1 to 1
17 | COc1cc(F)ccc1[C@H]1C[C@@](C)(C(F)(F)F)O[C@H]1C(=O)Nc1ccnc(C(N)=O)c1 (single isomer, unassigned) [Compound 69] | > 1
18 | COc1c([C@H]2C[C@@](C)(C(F)(F)F)O[C@@H]2C(=O)Nc2ccnc(C(N)=O)c2)ccc(F)c1C (single isomer, unassigned) [Compound 71] | > 1
19 | COc1c([C@@H]2C[C@](C)(C(F)(F)F)O[C@H]2C(=O)Nc2ccnc(C(N)=O)c2)ccc(F)c1C (single isomer, unassigned) [Compound 72] | 0.01 to 0.1

Row | Compound | IC50 [µM]
20 | Cc1c(F)ccc([C@H]2C[C@@](C)(C(F)(F)F)O[C@@H]2C(=O)Nc2ccnc(C(N)=O)c2)c1F (single isomer, unassigned) [Compound 75] | > 1
21 | Cc1c(F)ccc([C@@H]2C[C@](C)(C(F)(F)F)O[C@H]2C(=O)Nc2ccnc(C(N)=O)c2)c1F (single isomer, unassigned) [Compound 76] | 0.1 to 1
22 | CCc1c(F)ccc([C@H]2C[C@@](C)(C(F)(F)F)O[C@@H]2C(=O)Nc2ccnc(C(N)=O)c2)c1OC (single isomer, unassigned) [Compound 77] | > 1
23 | CCc1c(F)ccc([C@@H]2C[C@](C)(C(F)(F)F)O[C@H]2C(=O)Nc2ccnc(C(N)=O)c2)c1OC (single isomer, unassigned) [Compound 78] | 0.01 to 0.1
24 | COc1c([C@@H]2C[C@@](C)(CC(F)(F)F)O[C@H]2C(=O)Nc2ccnc(C(N)=O)c2)ccc(F)c1F (single isomer, unassigned) [Compound 80] | > 1
25 | COc1c([C@@H]2C[C@](C)(CC(F)(F)F)O[C@H]2C(=O)Nc2ccnc(C(N)=O)c2)ccc(F)c1F (single isomer, unassigned) [Compound 81] | 0.1 to 1
26 | COc1c([C@H]2C[C@@](C)(CC(F)(F)F)O[C@@H]2C(=O)Nc2ccnc(C(N)=O)c2)ccc(F)c1F (single isomer, unassigned) [Compound 82] | > 1
27 | COc1c([C@H]2C[C@](C)(CC(F)(F)F)O[C@@H]2C(=O)Nc2ccnc(C(N)=O)c2)ccc(F)c1F (single isomer, unassigned) [Compound 83] | 0.1 to 1
28 | COc1c([C@@H]2C[C@@](C)(C(C)(F)F)O[C@H]2C(=O)Nc2ccnc(C(N)=O)c2)ccc(F)c1F (single isomer, unassigned) [Compound 84] | > 1
29 | COc1c([C@H]2C[C@@](C)(C(C)(F)F)O[C@@H]2C(=O)Nc2ccnc(C(N)=O)c2)ccc(F)c1F (single isomer, unassigned) [Compound 85] | > 1
30 | COc1c([C@@H]2C[C@](C)(C(C)(F)F)O[C@H]2C(=O)Nc2ccnc(C(N)=O)c2)ccc(F)c1F (single isomer, unassigned) [Compound 86] | > 1
31 | COc1c([C@H]2C[C@](C)(C(C)(F)F)O[C@@H]2C(=O)Nc2ccnc(C(N)=O)c2)ccc(F)c1F (single isomer, unassigned) [Compound 87] | 0.1 to 1
32 | CC(C)Oc1c([C@@H]2[C@@H](C(=O)Nc3ccnc(C(N)=O)c3)O[C@](C)(C(F)(F)F)[C@@H]2C)ccc(F)c1F (single isomer, unassigned) [Compound 88] | > 1
33 | CC(C)Oc1c([C@H]2[C@H](C(=O)Nc3ccnc(C(N)=O)c3)O[C@@](C)(C(F)(F)F)[C@H]2C)ccc(F)c1F (single isomer, unassigned) [Compound 89] | < 0.01
34 | C[C@@H]1[C@H](c2ccc(F)c(F)c2)[C@@H](C(=O)Nc2ccnc(C(N)=O)c2)O[C@]1(C)C(F)(F)F (single isomer, unassigned) [Compound 90] | > 1
35 | C[C@H]1[C@@H](c2ccc(F)c(F)c2)[C@H](C(=O)Nc2ccnc(C(N)=O)c2)O[C@@]1(C)C(F)(F)F (single isomer, unassigned) [Compound 91] | 0.1 to 1
36 | CC[C@@H]1[C@H](c2ccc(F)c(F)c2OC)[C@@H](C(=O)Nc2ccnc(C(N)=O)c2)O[C@]1(C)C(F)(F)F (single isomer, unassigned) [Compound 92] | > 1
37 | CC[C@H]1[C@@H](c2ccc(F)c(F)c2OC)[C@H](C(=O)Nc2ccnc(C(N)=O)c2)O[C@@]1(C)C(F)(F)F (single isomer, unassigned) [Compound 93] | < 0.01

— patent publication US11919887B2, “Substituted tetrahydrofurans as modulators of sodium channels” (Vertex Pharmaceuticals Incorporated, priority 2019, dated 2024)
